Data reported in the supplement of paper PMC10307832.

Key:
Experiment in all cases: relative viability (nuclei count vs DMSO), 5 days (fraction); higher = more cells survive
[1] = compound: CN(C)C[C@@H]1CCn2cc(c3ccccc32)C2=C(C(=O)NC2=O)c2cn(c3ccccc23)CCO1 [Ruboxistaurin] + CS(=O)(=O)CCNCc1ccc(-c2ccc3ncnc(Nc4ccc(OCc5cccc(F)c5)c(Cl)c4)c3c2)o1 [Lapatinib] (partner 2 µM)
In short: (§1)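 Relative viability equals treated-well nuclei counts divided by vehicle-well nuclei counts. Counts came from 4× images of lung cancer cell lines grown in 1536-well plates for 5 days after pin-tool dosing on the day after seeding. Dosing used one drug alone or a fixed anchor-drug dose plus five library-drug doses (not always all listed) in √10 steps, and values are medians of duplicate plates.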

Ruboxistaurin + AZD7762 = compound: CN(C)C[C@@H]1CCn2cc(c3ccccc32)C2=C(C(=O)NC2=O)c2cn(c3ccccc23)CCO1 [Ruboxistaurin] + NC(=O)Nc1cc(-c2cccc(F)c2)sc1C(=O)N[C@H]1CCCNC1 [AZD7762] (partner 0.2 µM)
In short: as §1

[2] = compound: CN(C)C[C@@H]1CCn2cc(c3ccccc32)C2=C(C(=O)NC2=O)c2cn(c3ccccc23)CCO1 [Ruboxistaurin] + Cc1nc(NC(=O)N2CCC[C@H]2C(N)=O)sc1-c1ccnc(C(C)(C)C(F)(F)F)c1 [Alpelisib] (partner 2 µM)
In short: as §1

[3] = compound: CN(C)C[C@@H]1CCn2cc(c3ccccc32)C2=C(C(=O)NC2=O)c2cn(c3ccccc23)CCO1 [Ruboxistaurin] + Cc1nc(Nc2ncc(C(=O)Nc3c(C)cccc3Cl)s2)cc(N2CCN(CCO)CC2)n1 [Dasatinib] (partner 0.075 µM)
In short: as §1

[4] = compound: CN(C)C[C@@H]1CCn2cc(c3ccccc32)C2=C(C(=O)NC2=O)c2cn(c3ccccc23)CCO1 [Ruboxistaurin] + N=C(N)NC(=N)NCCc1ccccc1 [Phenformin] (partner 250 µM)
In short: as §1

Cell Line	relative viability ([1]; first compound 0.08 µM)	relative viability ([1]; first compound 0.8 µM)	relative viability ([1]; first compound 2.53 µM)	relative viability ([1]; first compound 8 µM)	relative viability (Ruboxistaurin + AZD7762; first compound 0.08 µM)	relative viability (Ruboxistaurin + AZD7762; first compound 0.8 µM)	relative viability (Ruboxistaurin + AZD7762; first compound 2.53 µM)	relative viability (Ruboxistaurin + AZD7762; first compound 8 µM)	relative viability ([2]; first compound 0.08 µM)	relative viability ([2]; first compound 0.8 µM)	relative viability ([2]; first compound 2.53 µM)	relative viability ([2]; first compound 8 µM)	relative viability ([3]; first compound 0.08 µM)	relative viability ([3]; first compound 0.8 µM)	relative viability ([3]; first compound 2.53 µM)	relative viability ([3]; first compound 8 µM)	relative viability ([4]; first compound 0.08 µM)	relative viability ([4]; first compound 0.8 µM)	relative viability ([4]; first compound 2.53 µM)	relative viability ([4]; first compound 8 µM)
LU99A	1.09	0.967	0.94	0.761	0.385	0.312	0.349	0.289	0.552	0.48	0.45	0.297	0.412	0.436	0.589	0.507	0.759	0.625	0.872	0.787
LXF-289	0.914	0.88	0.886	0.864	1.12	1.03	1.07	1.17	1.11	0.952	0.994	1	0.243	0.206	0.273	0.22	0.514	0.509	0.488	0.594
NCI-H23	1.38	0.97	1.21	0.819	0.234	0.262	0.185	0.279	0.831	0.617	0.71	0.686	0.849	0.732	0.769	0.794	0.766	0.781	0.819	0.852
NCI-H322M	0.589	0.54	0.543	0.543	0.56	0.564	0.573	0.475	0.811	0.74	0.818	0.67	0.265	0.267	0.257	0.228	0.838	0.67	0.656	0.455
NCI-H358	0.479	0.408	0.421	0.406	0.593	0.48	0.519	0.49	0.927	0.666	0.75	0.424	0.177	0.149	0.149	0.148	0.32	0.255	0.293	0.263
NCI-H460	1.03	0.966	1.02	1.01	0.652	0.669	0.751	0.574	0.398	0.324	0.26	0.137	0.552	0.35	0.602	0.327	0.535	0.497	0.533	0.485
